Assay results as given in ChEMBL document CHEMBL3588744, “Structure-Based Optimization of Naphthyridones into Potent ATAD2 Bromodomain Inhibitors” (J Med Chem, 2015).
Values after ≈ are worked out from the molar mass of the structure shown.

Columns and labels:
[1] = molecular target: T1, ATPase family AAA domain-containing protein 2 (Homo sapiens, UniProt Q6PL18)
T1 sequence (Q6PL18 whole entry): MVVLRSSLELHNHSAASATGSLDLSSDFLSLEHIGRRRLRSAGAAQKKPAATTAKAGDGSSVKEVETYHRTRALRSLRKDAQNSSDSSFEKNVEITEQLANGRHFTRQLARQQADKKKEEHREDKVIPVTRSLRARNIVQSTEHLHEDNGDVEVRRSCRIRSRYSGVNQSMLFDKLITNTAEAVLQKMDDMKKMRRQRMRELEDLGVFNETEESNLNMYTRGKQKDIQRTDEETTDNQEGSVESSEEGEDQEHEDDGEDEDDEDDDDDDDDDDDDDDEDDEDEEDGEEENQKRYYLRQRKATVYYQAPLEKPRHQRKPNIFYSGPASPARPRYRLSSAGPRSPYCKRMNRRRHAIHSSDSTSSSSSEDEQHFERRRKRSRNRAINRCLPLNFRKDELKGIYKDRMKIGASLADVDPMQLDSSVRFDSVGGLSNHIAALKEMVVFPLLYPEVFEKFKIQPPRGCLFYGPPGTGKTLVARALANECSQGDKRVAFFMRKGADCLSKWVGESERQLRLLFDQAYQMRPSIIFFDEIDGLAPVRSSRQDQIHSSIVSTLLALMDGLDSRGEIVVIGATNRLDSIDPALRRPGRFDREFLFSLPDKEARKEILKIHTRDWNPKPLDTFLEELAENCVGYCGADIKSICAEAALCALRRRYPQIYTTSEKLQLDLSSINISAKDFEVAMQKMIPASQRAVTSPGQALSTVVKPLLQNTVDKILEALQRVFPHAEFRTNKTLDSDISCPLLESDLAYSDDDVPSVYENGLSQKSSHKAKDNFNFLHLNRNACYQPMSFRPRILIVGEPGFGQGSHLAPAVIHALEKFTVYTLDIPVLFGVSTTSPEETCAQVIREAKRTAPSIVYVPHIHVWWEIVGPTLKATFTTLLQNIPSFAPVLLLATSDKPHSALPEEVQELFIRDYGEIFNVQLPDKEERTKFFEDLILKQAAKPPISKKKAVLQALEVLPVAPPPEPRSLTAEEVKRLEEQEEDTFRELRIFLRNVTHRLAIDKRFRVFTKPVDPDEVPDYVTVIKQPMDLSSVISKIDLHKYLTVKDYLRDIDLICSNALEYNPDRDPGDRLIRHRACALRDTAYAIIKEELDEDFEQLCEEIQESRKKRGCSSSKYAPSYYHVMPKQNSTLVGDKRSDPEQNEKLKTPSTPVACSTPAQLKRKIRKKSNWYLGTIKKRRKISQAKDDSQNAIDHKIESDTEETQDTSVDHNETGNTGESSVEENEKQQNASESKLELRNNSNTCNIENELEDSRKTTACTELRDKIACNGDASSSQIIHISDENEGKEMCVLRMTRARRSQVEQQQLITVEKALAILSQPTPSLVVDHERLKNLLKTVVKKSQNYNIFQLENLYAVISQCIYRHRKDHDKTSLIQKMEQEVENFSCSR

physchem = details: phosphate buffered saline, pH 7.4, solubility
Description: Solubility of the compound in phosphate buffered saline at pH 7.4 after 1 hr by CLND method

[2] = molecular target: T1, ATPase family AAA domain-containing protein 2; remark: listed apart in the source
Description: Displacement of histone H4 peptide from FLAG-6His-Tev-ATAD2 (981 to 1121) (unknown origin) expressed in Escherichia coli BL21 (DE3) after 30 mins by TR-FRET analysis relative to control

[3] = molecular target: Bromodomain-containing protein 4 (Homo sapiens, UniProt O60885, Y390A)
[4] = Permeability across phosphatidyl choline membrane at pH 7.4 after 3 hrs by HPLC with UV detection method; type: ADME; details: not told, read-out: permeability
[5] = Distribution coefficient, log D of the compound at pH 7.4 by chromatographic method; type: physicochemical; details: octanol/water

SMILES | IC50 [1] | solubility kinetic at 1 h (physchem) | IC50 [2] | IC50 [3] | Papp at 3 h [4] | chromatographic logD [5] | logD [5]
Cc1cc2c(-c3cncnc3)cnc(N[C@@H]3CCNC[C@H]3OCC3CCOCC3)c2[nH]c1=O | 0.794 µM | ≥ 414 µM | 1 µM | 50.1 µM | < 0.3 ×10⁻⁶ cm/s |  | 
Cc1cc2ccnc(N[C@H]3CCNC[C@@H]3OCC3CCCCC3)c2[nH]c1=O |  | 140 µM (≈ 51.9 µg/mL) |  | 12.6 µM |  | 3.3 | 
Cc1cncc(-c2cnc(N[C@H]3CCNC[C@@H]3OCC3CCCCC3)c3[nH]c(=O)c(C)cc23)c1 |  | 196 µM (≈ 90.5 µg/mL) |  |  |  | 4.2 | 
Cc1cc2c(-c3cncc(N)c3)cnc(N[C@@H]3CCNC[C@H]3OCC3CCCCC3)c2[nH]c1=O |  | 494 µM (≈ 229 µg/mL) |  |  |  | 2.2 | 
Cc1cc2ccnc(N[C@@H]3CCNC[C@H]3OCC3CCOCC3)c2[nH]c1=O |  |  |  |  | < 1 ×10⁻⁶ cm/s |  | 1.5
Cc1cc2ccnc(N[C@H]3CCNC[C@@H]3OCC3CCOCC3)c2[nH]c1=O |  | ≥ 352 µM |  | 12.6 µM |  | 1.5 | 
Cc1cc2ccnc(N[C@@H]3CCNC[C@H]3OCC3CCS(=O)(=O)CC3)c2[nH]c1=O |  |  |  | 12.6 µM | < 0.65 ×10⁻⁶ cm/s |  | 
Cc1cncc(-c2cnc(N[C@@H]3CCNC[C@H]3OC[C@H]3C[C@@H](C)S(=O)(=O)[C@@H](C)C3)c3[nH]c(=O)c(C)cc23)c1 | 0.0631 µM | 30 µM (≈ 16.2 µg/mL) | 0.1 µM | 25.1 µM | < 0.3 ×10⁻⁶ cm/s |  | 
CCc1cc2c(-c3cncc(C)c3)cnc(N[C@@H]3CCNC[C@H]3OCC3CCS(=O)(=O)CC3)c2[nH]c1=O | 0.0501 µM | 323 µM (≈ 170 µg/mL) | 0.0794 µM | 10 µM | < 0.3 ×10⁻⁶ cm/s |  | 
Cc1cc2ccnc(N[C@@H]3CCNC[C@H]3OCCC3CCOCC3)c2[nH]c1=O (racemic) |  | ≥ 327 µM |  | 25.1 µM |  | 1.5 | 
CC(=O)N1CCC(CO[C@@H]2CNCC[C@H]2Nc2nccc3cc(C)c(=O)[nH]c23)CC1 (racemic) |  | ≥ 392 µM | 7.94 µM | 10 µM |  | 1.2 | 
Cc1cc2ccnc(N[C@@H]3CCNC[C@H]3OC[C@H]3CC[C@H](O)CC3)c2[nH]c1=O (racemic) |  | ≥ 323 µM | 5.01 µM | 12.6 µM |  | 0.7 | 
Cc1cc2ccnc(N[C@@H]3CCNC[C@H]3OCC3CCOCC3)c2[nH]c1=O (racemic) |  | 298 µM (≈ 111 µg/mL) |  | 10 µM |  | 1.7 | 
Cc1cc2ccnc(N[C@@H]3CCNC[C@H]3OC[C@@H]3CCS(=O)(=O)C3)c2[nH]c1=O (racemic) |  | ≥ 328 µM | 5.01 µM | 12.6 µM |  | 1 | 
Cc1cc2ccnc(N[C@@H]3CCNC[C@H]3OC(C)C)c2[nH]c1=O (racemic) |  | 207 µM (≈ 65.5 µg/mL) | 63.1 µM | 25.1 µM |  | 1.8 | 
Cc1cc2ccnc(N[C@@H]3CCNC[C@H]3OCC3CCCC3)c2[nH]c1=O (racemic) |  | ≥ 275 µM | 7.94 µM | 10 µM |  | 3.1 | 
Cc1cncc(-c2ccc(N[C@@H]3CCNC[C@H]3OCC3CCS(=O)(=O)CC3)c3[nH]c(=O)c(C)cc23)c1 (racemic) |  | 217 µM (≈ 111 µg/mL) |  |  | < 0.3 ×10⁻⁶ cm/s |  | 

Further compounds by falling IC50 [3], results first:

IC50 [1] | solubility kinetic at 1 h (physchem) | IC50 [2] | IC50 [3] | Papp at 3 h [4] | chromatographic logD [5] | logD [5] | SMILES
0.1 µM | ≥ 315 µM | 0.126 µM | 10 µM | < 0.3 ×10⁻⁶ cm/s |  |  | Cc1cc2c(-c3cccnc3)cnc(N[C@@H]3CCNC[C@H]3OCC3CCS(=O)(=O)CC3)c2[nH]c1=O
0.251 µM | 254 µM (≈ 118 µg/mL) | 0.316 µM | 10 µM | 3.25 ×10⁻⁶ cm/s |  |  | Cc1cncc(-c2cnc(N[C@@H]3CCNC[C@H]3OCC3CCOCC3)c3[nH]c(=O)c(C)cc23)c1
0.316 µM | ≥ 418 µM | 0.251 µM | 7.94 µM | 3.35 ×10⁻⁶ cm/s |  |  | COc1cncc(-c2cnc(N[C@@H]3CCNC[C@H]3OCC3CCOCC3)c3[nH]c(=O)c(C)cc23)c1
0.1 µM | ≥ 269 µM | 0.126 µM | 7.94 µM | < 0.3 ×10⁻⁶ cm/s |  |  | COc1cncc(-c2cnc(N[C@@H]3CCNC[C@H]3OCC3CCS(=O)(=O)CC3)c3[nH]c(=O)c(C)cc23)c1
0.2 µM | ≥ 465 µM | 0.251 µM | 6.31 µM | < 0.3 ×10⁻⁶ cm/s |  |  | Cc1cc2c(-c3cccnc3)cnc(N[C@@H]3CCNC[C@H]3OCC3CCOCC3)c2[nH]c1=O
 | ≥ 306 µM | 10 µM | 6.31 µM |  | 0.9 |  | CO[C@@H]1CNCC[C@H]1Nc1nccc2cc(C)c(=O)[nH]c12
 | ≥ 309 µM |  | 6.31 µM |  | 1 |  | Cc1cc2ccnc(N[C@@H]3CCNC[C@H]3OCC3CCS(=O)(=O)CC3)c2[nH]c1=O (racemic)
 | ≥ 280 µM | 25.1 µM | 6.31 µM |  | 1.8 |  | CCCO[C@@H]1CNCC[C@H]1Nc1nccc2cc(C)c(=O)[nH]c12 (racemic)
 | ≥ 290 µM |  | 6.31 µM |  | 2.3 |  | Cc1cc2ccnc(N[C@@H]3CCNC[C@H]3OCC(C)C)c2[nH]c1=O (racemic)
 | ≥ 531 µM |  | 5.01 µM |  | 1.1 |  | Cc1cc2ccnc(N[C@H]3CCNC[C@@H]3OCC3CCS(=O)(=O)CC3)c2[nH]c1=O
 | 285 µM (≈ 106 µg/mL) |  | 5.01 µM |  | 3.3 |  | Cc1cc2ccnc(N[C@@H]3CCNC[C@H]3OCC3CCCCC3)c2[nH]c1=O (racemic)
 | ≥ 316 µM | 2 µM | 5.01 µM |  | 4 |  | Cc1cc2ccnc(N[C@@H]3CCNC[C@H]3OCC3CCCCCC3)c2[nH]c1=O (racemic)
 |  |  | 3.98 µM | 13 ×10⁻⁶ cm/s |  |  | Cc1cc2ccnc(N[C@@H]3CCNC[C@H]3OCC3CCCCC3)c2[nH]c1=O
